Results: PubChem BioAssay AID493130 (Broad Institute, 2011)
Inconclusive results are not listed. The source made the active and inactive calls.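 How the source made its calls: active means signal-lowering compounds whose fitted half-maximal concentration is at most ten times their highest tested dose; inconclusive means flat fit between -30 and -70%, or poor fit; inactive means flat within 30%, signal rising, or potency beyond limit.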

What follows are compounds tested against POS-1 (Caenorhabditis elegans) binding to mex-3 RNA (assay: C. elegans POS-1 RNA interaction disruptors – biochemical, fluorescence polarization, cherry-picked samples, set 2, counter-screen for MEX-5 RNA-binding inhibitor project, dose response (AID 493130;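 further: POS-1 as maltose binding protein fusion made in E. coli with FITC RNA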)). Details: POS-1/mex-3 RNA fluorescence polarization, 1 h.

Question: With `Cc1cccc(N2C(=O)NC(=O)/C(=C/c3cc4c(cc3[N+](=O)[O-])OCO4)C2=O)c1` as the compound, how does the AC50 read?
Answer: 2.94 µM

Question: `CCOC(=O)C1=C(CSc2nc3c(cc2C#N)CN(C)CC3)OC(N)=C(C#N)C1c1ccncc1` (stereo not drawn) was tested. Which AC50 did it give?
Answer: 7.33 µM

Question: Which AC50 does the source give for `O=C(O[C@@H]1OC2COC(=O)c3cc(O)c(O)c(O)c3-c3c(cc(O)c(O)c3O)C(=O)O[C@@H]([C@H]1O)[C@@H]2O)c1cc(O)c(O)c(O)c1` here?
Answer: 2.27 µM

Question: Which AC50 does the source give for `Cc1cc(O)c(-c2cc(O)c(C)cc2O)cc1O` here?
Answer: 10.1 µM

Question: For `COc1ccc(NC(=O)c2cccc(-c3ccc(O)cc3)c2)cn1`, which AC50 is on record?
Answer: 3.93 µM

Question: How did the AC50 turn out when `Cc1[nH][nH]c(=O)c1C(c1ccc(O)c([N+](=O)[O-])c1)c1c(C)[nH][nH]c1=O` was run?
Answer: 7.84 µM

Question: How did the AC50 turn out when `Cc1cc(=O)oc(C)c1C(=O)Nc1ccc2ncccc2c1` was run?
Answer: 8.33 µM

Question: Which AC50 does the source give for `O=[N+]([O-])c1ccccc1NC(=S)N/N=C/c1ccc(O)c(O)c1` here?
Answer: 5.42 µM

Question: `Cc1ccc(-c2cc(C(=O)Nc3ccc(S(=O)(=O)Nc4ncccn4)cc3)[nH]n2)c(O)c1C` was tested. Which AC50 did it give?
Answer: 5.29 µM

Question: For `Nc1nnc(CC(=O)N/N=C/c2cc([N+](=O)[O-])cc(Br)c2O)s1`, which AC50 is on record?
Answer: 6.03 µM

Question: For `Cc1ccc(N2C(=O)NC(=O)/C(=C\c3ccc([N+](=O)[O-])o3)C2=O)cc1`, which AC50 is on record?
Answer: 7.36 µM

Question: With `O=C1CSC(=S)N1/N=C/c1cc(Br)c(O)c(Br)c1` as the compound, how does the AC50 read?
Answer: 10.2 µM

Question: With `COc1ccc(Cn2c(O)c(/C=N/NC(=O)c3ccccc3O)c(=O)[nH]c2=O)cc1` as the compound, how does the AC50 read?
Answer: 6.22 µM

Question: `O=C(O)c1ccc(Cl)c2c1C1C=CCC1C(c1ccccn1)N2` (stereo not drawn) was tested. Which AC50 did it give?
Answer: 8.69 µM

Same assay, conditions: POS-1/mex-3 RNA fluorescence polarization, 1 h; at 10 µM (top of the series)

Question: For `COc1ccc(NC(=S)NNC(=O)C(C)n2nc(C)c([N+](=O)[O-])c2C)cc1` (stereo not drawn), which “activity change, negative = inhibition” value is on record?
Answer: inactive

Question: For `Cc1ccc(S(=O)(=O)N/N=C/c2ccc(O)c(O)c2)cc1[N+](=O)[O-]`, which “activity change, negative = inhibition” value is on record?
Answer: inactive

Question: For `CC1CN(c2nc3ccccc3nc2C(C#N)C(=O)NCc2ccc3c(c2)OCO3)CC(C)O1` (stereo not drawn), which “activity change, negative = inhibition” value is on record?
Answer: inactive

Question: Which “activity change, negative = inhibition” value does the source give for `CCOc1ccccc1C1NC(=O)NC(C)=C1C(=O)OCc1ccccc1` (stereo not drawn) here?
Answer: inactive

Question: `Nc1cc(C(=O)O)c(Oc2ccc(Cl)cc2Cl)cc1C(=O)O` was tested. Which “activity change, negative = inhibition” value did it give?
Answer: inactive

Question: For `CCCCn1c(N)c(N(Cc2ccccc2OC)C(=O)C(C)C)c(=O)[nH]c1=O`, which “activity change, negative = inhibition” value is on record?
Answer: inactive

Question: `CCc1ccc(S(=O)(=O)Nc2ccc(O)c3c(=O)cc(-c4ccccc4Cl)oc23)cc1` was tested. Which “activity change, negative = inhibition” value did it give?
Answer: inactive

Question: How did the “activity change, negative = inhibition” value turn out when `Nc1c(NCc2ccccc2)c(=O)[nH]c(=O)n1Cc1ccccc1` was run?
Answer: inactive

Question: With `COc1cc2c(cc1O)CC1c3c(cc(O)c(OC)c3-2)CCN1C` (stereo not drawn) as the compound, how does the “activity change, negative = inhibition” value read?
Answer: inactive

Question: `O=C(CN1C(=O)/C(=C/c2cccc(Br)c2)SC1=S)NC1=NCCS1` was tested. Which “activity change, negative = inhibition” value did it give?
Answer: inactive

Question: `Cc1cc(C)c2c3c(sc2n1)C(c1ccccc1)C(C#N)=C(N)O3` (stereo not drawn) was tested. Which “activity change, negative = inhibition” value did it give?
Answer: inactive

Question: For `O=C(O)CCCN1C(=O)/C(=C\c2ccc(-c3nc4ccccc4s3)o2)SC1=S`, which “activity change, negative = inhibition” value is on record?
Answer: inactive

Question: With `Nc1ccc2nc[nH]c2c1` as the compound, how does the “activity change, negative = inhibition” value read?
Answer: inactive

Question: With `Cn1c(=O)c2c(nc(NN=C3CCCCC3)n2C)n(C)c1=O` as the compound, how does the “activity change, negative = inhibition” value read?
Answer: inactive

Question: How did the “activity change, negative = inhibition” value turn out when `COc1ccc(C(=O)NNC(=O)C(=O)/C=C(\O)c2ccc(C)cc2)cc1` was run?
Answer: inactive

Question: How did the “activity change, negative = inhibition” value turn out when `Cc1cc(C(=O)N/N=C/c2ccc(-c3ccc([N+](=O)[O-])cc3C)o2)n[nH]1` was run?
Answer: inactive

Question: With `CC(=O)NN1C(=O)/C(=C2/Sc3ccccc3N2C)SC1=S` as the compound, how does the “activity change, negative = inhibition” value read?
Answer: inactive

Question: How did the “activity change, negative = inhibition” value turn out when `CCOC(=O)c1c(NS(=O)(=O)c2ccccc2)n(CCCOC)c2nc3ccccc3nc12` was run?
Answer: inactive

Question: `COCCN1CCC(CNCc2cn(-c3cc(C)ccc3C)nc2-c2ccccc2)C1` (stereo not drawn) was tested. Which “activity change, negative = inhibition” value did it give?
Answer: inactive

Question: Which “activity change, negative = inhibition” value does the source give for `CCOC(=O)C1CCN(c2nc(N)c3c(N)nc(SCC(=O)O)cc3c2C#N)CC1` here?
Answer: inactive

Question: `CC1=C(C(=O)OCc2ccccc2)C(c2ccc(N(C)C)cc2)NC(=O)N1` (stereo not drawn) was tested. Which “activity change, negative = inhibition” value did it give?
Answer: inactive

Question: How did the “activity change, negative = inhibition” value turn out when `CC(=O)NN1C(=O)/C(=C/c2ccc(Br)o2)SC1=S` was run?
Answer: inactive

Question: For `Cc1ccc(C(=O)NNc2ncnc3c2cnn3C)cc1`, which “activity change, negative = inhibition” value is on record?
Answer: inactive

Question: `O=C(N/N=C/c1oc(O)c2ccccc12)c1ccccc1O` was tested. Which “activity change, negative = inhibition” value did it give?
Answer: inactive

Question: Which “activity change, negative = inhibition” value does the source give for `CCN1C/C(=C/c2ccc(OC)c(O)c2)C(=O)/C(=C/c2ccc(OC)c(O)c2)C1` here?
Answer: inactive

Question: For `CCN1CCN(Cc2c(C(=O)N/N=C(\C)c3ccc(Cl)c(Cl)c3)nnn2-c2nonc2N)CC1`, which “activity change, negative = inhibition” value is on record?
Answer: inactive

Question: How did the “activity change, negative = inhibition” value turn out when `N#Cc1cc2c(=O)n3ccccc3nc2n(CCCN2CCOCC2)c1=O` was run?
Answer: inactive

Question: For `CC1=Nc2cccc3cccc(c23)N1C`, which “activity change, negative = inhibition” value is on record?
Answer: inactive

Question: How did the “activity change, negative = inhibition” value turn out when `Cc1ccc(-c2nc(C=Nc3ccccc3)c(O)o2)cc1` was run?
Answer: inactive

Question: How did the “activity change, negative = inhibition” value turn out when `COC1=C(Nc2ccc(O)cc2)C(=O)c2ccccc2C1=O` was run?
Answer: inactive

Question: For `c1cncc(C2CC(c3cccs3)n3ncnc3N2)c1` (stereo not drawn), which “activity change, negative = inhibition” value is on record?
Answer: inactive

Question: How did the “activity change, negative = inhibition” value turn out when `COc1cccc(/C=N/NC(=O)N/N=C/c2cccc(OC)c2O)c1O` was run?
Answer: inactive

Question: Which “activity change, negative = inhibition” value does the source give for `CCOC(=O)c1c(=O)n(O)c2ccc(OC)cc2[n+]1[O-]` here?
Answer: inactive

Question: `O=C(O)CCN1C(=O)/C(=C\c2ccc(OCc3ccccc3)c(OCc3ccccc3)c2)SC1=S` was tested. Which “activity change, negative = inhibition” value did it give?
Answer: inactive

Question: How did the “activity change, negative = inhibition” value turn out when `CN1CN(C)c2ccc([N+](=O)[O-])c3cccc1c23` was run?
Answer: inactive

Question: Which “activity change, negative = inhibition” value does the source give for `CN1C(=O)NC(c2ccccc2Cl)C2=C1CC(C)(C)CC2=O` (stereo not drawn) here?
Answer: inactive

Question: How did the “activity change, negative = inhibition” value turn out when `COC(=O)C1CSc2[nH]c(=O)sc2C1c1ccc(O)c(OC)c1` (stereo not drawn) was run?
Answer: inactive

Question: How did the “activity change, negative = inhibition” value turn out when `CCC(=O)NCCc1nc2ccccc2n1Cc1ccccc1` was run?
Answer: inactive

Question: `CC(C)=CCc1c(O)cc(O)c2c(=O)c(O[C@@H]3O[C@@H](C)[C@H](O)[C@@H](O)[C@H]3O)c(-c3ccc(O)cc3)oc12` was tested. Which “activity change, negative = inhibition” value did it give?
Answer: inactive

Question: Which “activity change, negative = inhibition” value does the source give for `Cc1cc2ccccc2n1CCNC(=O)c1ccc(Br)o1` here?
Answer: inactive

Question: For `O=C(NC1CCSc2ccccc21)c1ccccc1Br` (stereo not drawn), which “activity change, negative = inhibition” value is on record?
Answer: inactive

Question: For `CC[N+](C)(CC)CCCOC(=O)C(O)(c1ccccc1)C1CCCCC1` (stereo not drawn), which “activity change, negative = inhibition” value is on record?
Answer: inactive

Question: Which “activity change, negative = inhibition” value does the source give for `CCCCCOP(=O)(OCCCCC)C1(NS(=O)(=O)c2ccccc2)C=CC(=O)c2ccccc21` (stereo not drawn) here?
Answer: inactive

Question: With `CCCc1nc2ccccc2c(=O)n1/N=C/c1ccc(O)c(O)c1` as the compound, how does the “activity change, negative = inhibition” value read?
Answer: inactive

Question: With `CCc1ccc(N2C(=O)NC(=O)/C(=C\c3cccn3CCOc3ccc(C(C)C)cc3)C2=O)cc1` as the compound, how does the “activity change, negative = inhibition” value read?
Answer: inactive

Question: With `O=C(O)COc1ccc(Br)cc1C(c1c(C(=O)O)[nH]c2ccccc12)c1c(C(=O)O)[nH]c2ccccc12` as the compound, how does the “activity change, negative = inhibition” value read?
Answer: inactive

Question: How did the “activity change, negative = inhibition” value turn out when `COc1ccc(NC(=O)c2coc(C)c2)cc1` was run?
Answer: inactive

Question: Which “activity change, negative = inhibition” value does the source give for `O=C(CSc1nnc(COc2ccccc2)o1)Nc1nccs1` here?
Answer: inactive

Question: `Cn1c(O)c(N=Nc2ccc(F)cc2)c2ccccc21` was tested. Which “activity change, negative = inhibition” value did it give?
Answer: inactive

Question: `CC(=O)c1c2c3c(c(Br)ccc3n(C)c1=O)C(=O)c1ccccc1-2` was tested. Which “activity change, negative = inhibition” value did it give?
Answer: inactive

Question: How did the “activity change, negative = inhibition” value turn out when `CNC(=O)c1cc2ccc(OC)cc2oc1=O` was run?
Answer: inactive

Question: How did the “activity change, negative = inhibition” value turn out when `O=C(O)/C=C/C(=O)NNc1ncnc2ccccc12` was run?
Answer: inactive

Question: Which “activity change, negative = inhibition” value does the source give for `Cc1ccc([C@@H]2C3COCC=C3C(C#N)=C(N)C2(C#N)C#N)o1` (stereo partly drawn) here?
Answer: inactive

Question: With `CCc1nnc2c(N(C)C)nc3ccccc3n12` as the compound, how does the “activity change, negative = inhibition” value read?
Answer: inactive

Question: For `COc1ccc(NC(=O)/C=C/c2cccc(C(F)(F)F)c2)cn1`, which “activity change, negative = inhibition” value is on record?
Answer: inactive

Question: With `C=CCOc1ccc(C(c2c(C(=O)O)[nH]c3ccccc23)c2c(C(=O)O)[nH]c3ccccc23)cc1` as the compound, how does the “activity change, negative = inhibition” value read?
Answer: inactive

Question: Which “activity change, negative = inhibition” value does the source give for `O=C(O)c1cccc(-n2cccc2/C=C/[N+](=O)[O-])c1` here?
Answer: inactive

Question: For `CCCCn1c(O)c(N=Nc2ccccn2)c2ccccc21`, which “activity change, negative = inhibition” value is on record?
Answer: inactive

Question: Which “activity change, negative = inhibition” value does the source give for `COc1ccc2nc3ccccc3nc2c1N` here?
Answer: inactive

Question: Which “activity change, negative = inhibition” value does the source give for `CC1(OC(=O)c2ccc(Cl)nc2)C(=O)C=C2C=C(c3ccc(C#N)cc3)OC=C2C1=O` (stereo not drawn) here?
Answer: inactive

Question: Which “activity change, negative = inhibition” value does the source give for `CCOC(=O)C1Cc2ccccc2C(=O)O1` (stereo not drawn) here?
Answer: inactive

Question: With `N=c1c(S(=O)(=O)c2ccc(Cl)cc2)cc2c(=O)n3ccccc3nc2n1CC1CCCO1` (stereo not drawn) as the compound, how does the “activity change, negative = inhibition” value read?
Answer: inactive

Question: Which “activity change, negative = inhibition” value does the source give for `COc1ccc(C(CC(=O)N2CCCC2)c2c(OC)cc(OC)c3ccc(=O)oc23)cc1` (stereo not drawn) here?
Answer: inactive

Question: For `COc1ccc2c(c1OC)CN1CCc3cc4c(cc3[C@@H]1[C@@H]2O)OCO4`, which “activity change, negative = inhibition” value is on record?
Answer: inactive

Question: With `CN1CCc2nc3sc(C(=O)NC(C)(C)C)c(N)c3cc2C1` as the compound, how does the “activity change, negative = inhibition” value read?
Answer: inactive

Question: How did the “activity change, negative = inhibition” value turn out when `O=c1[nH]c(=S)n(-c2ccccc2F)c(O)c1C=Nc1ccc(N2CCOCC2)cc1` was run?
Answer: inactive

Question: With `CCCOc1ccc(C2=CSC3=NCCN23)cc1[N+](=O)[O-]` as the compound, how does the “activity change, negative = inhibition” value read?
Answer: inactive

Question: Which “activity change, negative = inhibition” value does the source give for `COc1ccc(N=Nc2c(C)[nH][nH]c2=O)cc1` here?
Answer: inactive

Question: `COc1cc(C=C2C(=O)c3ccccc3C2=O)cc(OC)c1OC` was tested. Which “activity change, negative = inhibition” value did it give?
Answer: inactive
